Measured values published in patent US10617719B2, “Deep sea water extract and use thereof” (Taiwan DOW Biotech Co., Ltd., priority 2015, dated 2020).

Tested on: Helicobacter pylori
Test: Inhibition of H. pylori growth on LB/sheep blood agar plates containing DSW extract
Type: cell-based, Helicobacter pylori (ten samples from different patients)
Details: same concentration of magnesium ions as the DSW extract (MgCl2 285 and 570 mg/L)
From the text: The present invention validates that the active components of the deep sea water extract having ability of inhibiting H. pylori growth are not associated with high magnesium, calcium ions and high hardness. […] Also, the present invention uses mass spectrometry to show a relational graph between the intensity value of the 1,070 component of the DSW extract and inhibiting H. pylori growth rate. In one embodiment, prepare the LB agar having the DSW extract with different hardness, the DSW extract with different concentration of EDTA or different concentration of MgCl2, follow by filtration through the 0.22 μm filter membrane or sterilization in an autoclave. Mix the LB agar with sheep blood, and pour the mixture into each 9-cm culture plate. Let each plate cool until its solid to form agar plate. For the LB agar having different concentration of MgCl2, take 2.85 mg MgCl2, add other nutrients and water to make 10 mL agar plate, the agar plate contains 285 mg/L MgCl2. According to above-mentioned procedure, the agar plats having different concentration of MgCl2 are 285 mg/L and 570 mg/L. The present invention also prepares the LB agar having the DSW extract with 1,200 ppm to 6,000 ppm and the 2,400 ppm DSW extract with different concentration of EDTA. The present invention identifies the active components of the DSW extract having the ability of inhibiting H. pylori growth. […]

[Cl-].[Cl-].[Mg+2] [magnesium ions, MgCl2]
ability of inhibiting H. pylori growth: does not have the ability of inhibiting H. pylori growth
